# In ChEMBL document CHEMBL1148288, “A new aliphatic amino prodrug system for the delivery of small molecules and proteins utilizing novel PEG derivatives” (J Med Chem, 2004):
# Structures can show the parent of a compound that is named as a salt.
# Test system: P388
# Assay: In vitro inhibitory activity against cancerous P388 cell line
# Type: functional, cell-based
# Details: Mus musculus
row,IC50 [µM],Structure (SMILES)
1,0.428,COCCOCCOC(=O)NCC(=O)OCCN(CCOC(=O)CNC(=O)OCCOCCOC)CC(=O)NC(=O)[C@@]1(O)Cc2c(O)c3c(c(O)c2[C@H](OC2CC(N)C(O)C(C)O2)C1)C(=O)c1c(OC)cccc1C3=O (stereo not given in full)
2,1.1,COCCOCCOC(=O)NCCOCCOCC(=O)OCCN(CCOC(=O)COCCOCCNC(=O)OCCOCCOC)CC(=O)NC(=O)[C@@]1(O)Cc2c(O)c3c(c(O)c2[C@H](OC2CC(N)C(O)C(C)O2)C1)C(=O)c1c(OC)cccc1C3=O (stereo not given in full)
3,0.316,COCCOCCOC(=O)NC(C)C(=O)OCCN(CCOC(=O)C(C)NC(=O)OCCOCCOC)CC(=O)NC(=O)[C@@]1(O)Cc2c(O)c3c(c(O)c2[C@H](OC2CC(N)C(O)C(C)O2)C1)C(=O)c1c(OC)cccc1C3=O (stereo not given in full)
4,0.455,COCCOCCOC(=O)NCCOCCOCCNC(=O)COCC(=O)OCCN(CCOC(=O)COCC(=O)NCCOCCOCCNC(=O)OCCOCCOC)CC(=O)NC(=O)[C@@]1(O)Cc2c(O)c3c(c(O)c2[C@H](OC2CC(N)C(O)C(C)O2)C1)C(=O)c1c(OC)cccc1C3=O (stereo not given in full)
5,0.017,COc1cccc2c1C(=O)c1c(O)c3c(c(O)c1C2=O)C[C@@](O)(C(=O)CO)C[C@@H]3O[C@H]1C[C@H](N)[C@H](O)[C@H](C)O1 [DOXORUBICIN HYDROCHLORIDE]
